Data: patent US5696115A, “Method for treating nicotine withdrawal” (Eli Lilly and Company, priority 1995, dated 1997)

Columns and labels:
[1] = system: muscarinic cholinergic receptor; assay: pharmacological studies, muscarinic cholinergic receptor activity
[2] = system: rats; assay: in vivo observation, overdose in rats; conditions: rats exposed to an overdose
[3] = system: clinical subjects; assay: clinical observation of pupil response; type: in vivo, human; conditions: rather than the expected pupilary dilation
[4] = detection of radiolabelled compound in saliva; type: in vivo
[5] = known; cited from earlier work
[6] = system: people addicted to nicotine; conditions: cited from earlier work

Structure (SMILES): Cc1cc2c(s1)Nc1ccccc1N=C2N1CCN(C)CC1 [2-methyl-4-(4-methyl-1-piperazinyl)-10H-thieno[2,3-b][1,5]benzodiazepine]
- muscarinic receptor subtype profile ([1]; in vivo animal and clinical observations): complex muscarinic receptor subtype profile
- muscarinic cholinergic receptor activity ([1]; pharmacological studies): has muscarinic cholinergic receptor activity
- salivation [2]: significant salivation
- pupilary response [3]: pupilary constriction
- detection in saliva [4]: can be detected in the saliva
- antipsychotic activity [5]: can provide antipsychotic activity
- extrapyramidal symptoms [5]: less likely to induce extrapyramidal symptoms

Structure (SMILES): Clc1cccc(Cl)c1N=C1NCCN1 [clonidine]
- effectiveness versus placebo ([6]; clonidine treatment for six weeks): more effective than placebo, but only for women

Structure (SMILES): CNC1(C)C2CCC(C2)C1(C)C (stereo not shown) [mecamylamine]
- undesirable side effects ([6]; receptor antagonist therapy): other undesirable side effects
- effect on tobacco consumption ([6]; receptor antagonist therapy, short term effect): increasing tobacco consumption
